Measured values from article PMC8587047, “Synthesis and Biological Evaluation of Harmirins, Novel Harmine–Coumarin Hybrids as Potential Anticancer Agents” (Molecules, 2021).

Key:
HepG2 = test: MTT cytotoxicity assay, HepG2; format: cell-based; settings: Homo sapiens, HepG2; MTT, 72 h, mean ± SD; read-out: IC50 HepG2
Description: (§1) We selected four different cancer cell lines for antiproliferative screening in vitro, which we believed would provide sufficient data on the anticancer potential of the prepared harmirins (hepatocellular carcinoma—HepG2, colorectal adenocarcinoma, Dukes’ type C—SW620, colorectal carcinoma—HCT116, and breast adenocarcinoma—MCF-7). Additionally, we included one non-cancer cell line (embryonic kidney—HEK293T) to evaluate harmirins’ selectivity. The commonly used anticancer drug 5-FU and harmine were used as positive controls. Pre-screening was performed using 50 µM of the tested compound. Only compounds that led to more than 50% reduction in mitochondrial metabolic activity at 50 µM concentration were selected for further analysis. The selectivity index (SI) for each harmirin was calculated as a fractional ratio between the IC50 values for HEK293T and the cancer cell line MCF-7 or HCT116 since these two cell lines were the most susceptible to harmirins.
(§2) The experiments were carried out on five human cell lines purchased from American Type Culture Collection (ATCC, PO BOX 1549, manassas, VA 20108, USA): HepG2 (hepatocellular carcinoma; ATCC® HB-8065™), SW620 (colorectal adenocarcinoma; ATCC® CCL-227™), HCT116 (colorectal carcinoma ATCC® CCL-247™), MCF-7 (breast adenocarcinoma, ATCC® HTB-22™), and HEK293T (embryonic kidney cells; ATCC® CRL-3216™). All cell lines were cultured as monolayers and maintained in Dulbecco’s modified Eagle medium (DMEM) (Capricorn Scientific, USA), supplemented with 10% fetal bovine serum (FBS) (Capricorn Scientific, USA), 100 U/mL penicillin, and 100 µg/mL streptomycin (Capricorn Scientific, USA) in a humidified atmosphere with 5% CO2 at 37 °C. Cells were seeded in 96-well plates (Corning, Durham, NC, USA) at 5000–7000 cells per well (depending on the cell doubling time of a specific cell line) in 0.1 mL media and cultured for 24 h. The next day, the medium was aspirated, and cells were treated for 72 h. Only the compounds that led to more than a 50% reduction in mitochondrial metabolic activity at a concentration of 50 µM were selected for further analysis. The following concentrations of selected compounds were used: 25, 10, 5, and 1 µM. Working dilutions were freshly prepared on the day of the testing. A fresh growth medium was added to untreated control cells, which were defined as 100% viable. DMSO (0.13%) in DMEM was considered a negative control. 5-Fluorouracil (5-FU) and harmine were used as positive controls. At the end of treatment, media was removed, and cells were incubated for 1 h with 0.5 mg/mL MTT (Abcam, Cambridge, MA, USA) dissolved in serum-deprived DMEM. The absorbance was directly proportional to cell viability. The MTT-containing media was then removed, and 0.1 mL isopropanol was added per well to lyse cells and dissolve formazan. The optical density was measured at 570 nm using a microplate reader (VICTOR3, PerkinElmer). Each test point was performed in triplicate. The IC50 values (concentration required to decrease viability by 50%) were calculated by using nonlinear regression on the sigmoidal dose–response plots and are expressed as mean ± SD.

SW620 = test: MTT cytotoxicity assay, SW620; format: cell-based; settings: Homo sapiens, SW-620; MTT, 72 h, mean ± SD; read-out: IC50 SW620
Description: as §1, §2

HCT116 = test: MTT cytotoxicity assay, HCT116; format: cell-based, human; settings: for IC50: Homo sapiens, HCT-116, MTT, 72 h, mean ± SD, read-out: IC50 HCT116; for SI (HCT116): ratio IC50 HEK293T / IC50 HCT116
Description: as §1, §2

MCF-7 = test: MTT cytotoxicity assay, MCF-7; format: cell-based, human; settings: for IC50: Homo sapiens, MCF7, MTT, 72 h, mean ± SD, read-out: IC50 MCF-7; for SI (MCF-7): ratio IC50 HEK293T / IC50 MCF-7
Description: as §1, §2

HEK293T = test: MTT cytotoxicity assay, HEK293T (non-cancer); format: cell-based, human; settings: for IC50: Homo sapiens, HEK-293T, MTT, 72 h, mean ± SD, non-cancer cell line, read-out: IC50 Hek293T
Description: as §1, §2

| SMILES | melting point | IC50 (HepG2) [µM] | IC50 (SW620) [µM] | IC50 (HCT116) [µM] | SI (HCT116) (HCT116) | IC50 (MCF-7) [µM] | SI (MCF-7) (MCF-7) | IC50 (HEK293T) [µM] | SIs (selectivity towards cancer cells in comparison to HEK293T) (HEK293T; cancer cell line not specified (MCF-7 or HCT116)) | activity against MCF-7, fold stronger than 5-FU (MCF-7; compared with 5-FU IC50) | activity against MCF-7, fold higher than harmine (MCF-7; compared with harmine IC50) |
| --- | --- | --- | --- | --- | --- | --- | --- | --- | --- | --- | --- |
| O=c1cc(OCc2cn(Cc3nccc4c3[nH]c3ccccc34)nn2)c2ccccc2o1 [4a, 4-((1-((9H-Pyrido[3,4-b]indol-1-yl)methyl)-1H-1,2,3-triazol-4-yl)methoxy)-2H-chromen-2-one] | 260.5 to 264 °C (dec.) | 29.5 ± 3.5 | > 50 | > 50 | >1 | > 50 | >1 | > 50 |  |  |  |
| Cc1ccc2oc(=O)cc(OCc3cn(Cc4nccc5c4[nH]c4ccccc45)nn3)c2c1 [4b, 4-((1-((9H-Pyrido[3,4-b]indol-1-yl)methyl)-1H-1,2,3-triazol-4-yl)methoxy)-6-methyl-2H-chromen-2-one] | 246.5 to 251 °C (dec.) | 27.3 ± 1.2 | > 50 | > 50 | <0.5 | 35.7 ± 1 | 0.7 | 26 ± 1 |  |  |  |
| O=c1cc(OCc2cn(Cc3nccc4c3[nH]c3ccccc34)nn2)c2cc(Cl)ccc2o1 [4c, 4-((1-((9H-Pyrido[3,4-b]indol-1-yl)methyl)-1H-1,2,3-triazol-4-yl)methoxy)-6-chloro-2H-chromen-2-one] | 263.5 to 265 °C (dec.) | > 50 | > 50 | > 50 | >1 | 39.1 ± 3.6 | >1.3 | > 50 |  |  |  |
| O=c1cc(OCc2cn(Cc3nccc4c3[nH]c3ccccc34)nn2)c2cc(F)ccc2o1 [4d, 4-((1-((9H-Pyrido[3,4-b]indol-1-yl)methyl)-1H-1,2,3-triazol-4-yl)methoxy)-6-fluoro-2H-chromen-2-one] | 239.5 to 241 °C (dec.) | > 50 | > 50 | 33.1 ± 7.7 | 1.4 | > 50 | <0.9 | 45.8 ± 0.2 |  |  |  |
| O=c1[nH]cc(F)c(=O)[nH]1 [5-FU, 5-fluorouracil, reference compound] |  | 5.5 ± 0.6 | 9.4 ± 0.3 | 5.2 ± 2.8 | 1.6 | 23.9 ± 5.7 | 0.3 | 8.1 ± 0.8 |  |  |  |
| Cc1nccc2c1[nH]c1cc(OCc3cn(-c4cc(=O)oc5ccccc45)nn3)ccc12 [12a, 4-(4-(((1-Methyl-9H-pyrido[3,4-b]indol-7-yl)oxy)methyl)-1H-1,2,3-triazol-1-yl)-2H-chromen-2-one] |  | 19.8 ± 1.1 | 30 ± 3.5 | 10 ± 3.4 | 1.5 | 21.6 ± 3.7 | 0.7 | 14.7 ± 0.8 |  |  |  |

Now from value to molecule, other results behind:

| melting point | SMILES | IC50 (HepG2) [µM] | IC50 (SW620) [µM] | IC50 (HCT116) [µM] | SI (HCT116) (HCT116) | IC50 (MCF-7) [µM] | SI (MCF-7) (MCF-7) | IC50 (HEK293T) [µM] | SIs (selectivity towards cancer cells in comparison to HEK293T) (HEK293T; cancer cell line not specified (MCF-7 or HCT116)) | activity against MCF-7, fold stronger than 5-FU (MCF-7; compared with 5-FU IC50) | activity against MCF-7, fold higher than harmine (MCF-7; compared with harmine IC50) |
| --- | --- | --- | --- | --- | --- | --- | --- | --- | --- | --- | --- |
| 149.5 to 153.5 °C (dec.) | Cc1nc(Cn2cc(COc3cc(=O)oc4ccccc34)nn2)cc2c1[nH]c1ccccc12 [5a, 4-((1-((1-Methyl-9H-pyrido[3,4-b]indol-3-yl)methyl)-1H-1,2,3-triazol-4-yl)methoxy)-2H-chromen-2-one] | 17.8 ± 1.8 | > 50 | > 50 | <0.1 | > 50 | <0.1 | 6.5 ± 1.6 |  |  |  |
| 263 to 267.5 °C (dec.) | Cc1ccc2oc(=O)cc(OCc3cn(Cc4cc5c([nH]c6ccccc65)c(C)n4)nn3)c2c1 [5b, 6-Methyl-4-((1-((1-methyl-9H-pyrido[3,4-b]indol-3-yl)methyl)-1H-1,2,3-triazol-4-yl)methoxy)-2H-chromen-2-one] | 16.8 ± 1.4 | > 50 | 3.2 ± 0.5 | 8.6 | > 50 | <0.6 | 27.3 ± 2.1 | > 7.2 |  |  |
| 254 to 257.5 °C (dec.) | Cc1nc(Cn2cc(COc3cc(=O)oc4ccc(Cl)cc34)nn2)cc2c1[nH]c1ccccc12 [5c, 6-Chloro-4-((1-((1-methyl-9H-pyrido[3,4-b]indol-3-yl)methyl)-1H-1,2,3-triazol-4-yl)methoxy)-2H-chromen-2-one] | 18.5 ± 2.3 | > 50 | 7.1 ± 0.7 | 1.2 | 15 ± 1.3 | 0.6 | 8.5 ± 0.3 |  |  |  |
| 259 to 261.5 °C (dec.) | Cc1nc(Cn2cc(COc3cc(=O)oc4ccc(F)cc34)nn2)cc2c1[nH]c1ccccc12 [5d, 6-Fluoro-4-((1-((1-methyl-9H-pyrido[3,4-b]indol-3-yl)methyl)-1H-1,2,3-triazol-4-yl)methoxy)-2H-chromen-2-one] | > 50 | > 50 | > 50 | <0.1 |  | <0.1 | 7 ± 1.6 |  |  |  |
| 235.5 to 238 °C (dec.) | Cc1nccc2c1[nH]c1ccc(OCc3cn(-c4cc(=O)oc5ccccc45)nn3)cc12 [11a, 4-(4-(((1-Methyl-9H-pyrido[3,4-b]indol-6-yl)oxy)methyl)-1H-1,2,3-triazol-1-yl)-2H-chromen-2-one] | 6.4 ± 0.2 | 8.4 ± 0.3 | 3.3 ± 0.4 | 2 | 2.2 ± 0.2 | 3 | 6.4 ± 0.2 |  | 9–13 fold | 5–7 fold |
| 235 to 242 °C (dec.) | Cc1ccc2oc(=O)cc(-n3cc(COc4ccc5[nH]c6c(C)nccc6c5c4)nn3)c2c1 [11b, 6-Methyl-4-(4-(((1-methyl-9H-pyrido[3,4-b]indol-6-yl)oxy)methyl)-1H-1,2,3-triazol-1-yl)-2H-chromen-2-one] | 13.6 ± 0.8 | > 50 | > 50 | <0.4 | 10.4 ± 0.8 | 2 | 21.3 ± 4.1 |  |  |  |
| 220 to 225 °C (dec.) | Cc1nccc2c1[nH]c1ccc(OCc3cn(-c4cc(=O)oc5ccc(Cl)cc45)nn3)cc12 [11c, 6-Chloro-4-(4-(((1-methyl-9H-pyrido[3,4-b]indol-6-yl)oxy)methyl)-1H-1,2,3-triazol-1-yl)-2H-chromen-2-one] | 14 ± 1.2 | 30.3 ± 3.9 | 15.5 ± 4.4 | 0.8 | 13.3 ± 1.5 | 0.9 | 12.2 ± 1 |  |  |  |
